# What was measured:
# [1] = tested on: MCF-7 breast cancer cells; settings: MCF-7 cells, Singh et al. 1995, cited from earlier work
# [2] = tested on: aromatase activity; settings: IL-6 stimulated fibroblasts derived from sub-cutaneous adipose tissue; Singh et al. 1995; cited from earlier work
# [3] = tested on: IL-6 plus IL-6sR stimulated aromatase activity; assay: IL-6 plus IL-6sR stimulated aromatase activity in fibroblasts derived from normal breast tissue; type: cell-based; settings: Arohib 125 μM added 3 h prior to IL-6 50 ng/ml + IL-6sR 100 ng/ml, serum-free medium
# Protocol: Aromatase activity was assessed in primary cultures of stromal fibroblasts derived from sub-cutaneous adipose tissue. Cells were grown until 80% confluent when they were washed with Earle's balanced salt solution (5 ml) and cultured for 24 h in phenol red-free, serum-free Eagle's minimum essential medium. Experimental media were then added in the presence of dexamethasone (100 nmol/l), IL-6 (50 ng/ml, Bachem, Cambridge, U.K.), or IL-6 plus IL-6sR (250 ng/ml, R & D System Europe Ltd., Abingdon, U.K.) and incubated for a further 48 h.
# Aromatase activity was assayed in intact fibroblast monolayers by measuring the production of hu 3H2O from [1β-^3H] androstenedione (15-30 Ci/mmol, NEN-DuPont, Stevenage, U.K.) over a 20 h period (Newton et al., 1986). Aromatase activity measured under these conditions was linear with respect to time for up to 20 h (Macdiarmid et al., 1994). Cell number was determined by counting cell nuclei using a Coulter counter.
# To examine the ability of Arohib to block the interaction of IL-6sR with gp130, fibroblasts were derived from normal breast tissue and cultured in growth medium containing fetal calf serum. When cells were 80% confluent, this medium was removed and replaced with serum-free medium. Cells were then treated as shown below with the results illustrated in FIG. 2.
compound,measurement,setting,value
4-hydroxytamoxifen [4-OHT],effect on oestradiol-induced increase of IL-6sR release,[1]; with oestradiol,blocked the ability of oestradiol to increase IL-6sR release
same,effect on IL-6sR release,[1],small stimulatory effect
"C[C@]12CC[C@@H]3c4ccc(O)cc4CC[C@H]3[C@@H]1CC[C@@H]2O [Oestradiol, oestradiol]",effect on IL-6sR release,[1],markedly increased
TNFα,effect on IL-6sR release,[1],markedly increased
IL-6: cytokine interleukin-6,aromatase activity (in words),[2],Significant arbmatase activity was detectable
"YRLRFELRYRAERSKT (PEPTIDE (1)..(16) sequence of a synthetic peptide corresponding to the regulatory site residues 249-264 of interleukin-6 receptor (IL-6R)) [Arohib, 16 amino acid peptide based upon part of the IL-6R external domain]",reduction in the ability of IL-6/IL-6sR to stimulate aromatase activity,[3],67%

# Reference: US6384193B1, “Agents for the regulation of oestrogen synthesis” (Imperial College of Science Technology and Medicine, priority 1996, dated 2002)
